Series [1] relates to cardiac tissue model (hiPSC-derived cardiomyocytes co-cultured with vascular-like network). Put plainly: Multielectrode array (MEA) field potential recording: FPD, beating frequency, Na+ spike amplitude. The class given is cell-based, human. The following applies: for signs of cardio activity or toxicity: negative controls, up to 30 µM; for signs of cardio activity or toxicity / effect on FPD (in words): MEA; for effect on FPD (in words): acute cumulative exposure. As to the method:
Hydrophobic compounds were solubilized in DMSO as 10 mM stocks. The water-soluble compounds were solubilized in distilled water as 1 mM stocks.
Extracellular field potentials were recorded using a Multiwell-MEA-System (Multi Channel Systems) with a 20 kHz sampling frequency on days 8–9 after cardiomyocyte seeding. The temperature was set at 37 °C and the cells were supplied with 5% CO2 during the measurements. Two-minute recordings were obtained as spontaneous baseline beating, after which the cardiac tissue models were exposed to a ½ logarithmic cumulative concentration series spanning from […] of the test compounds. With 24-well plates four replicate wells and with 96-well plates eight replicate wells were used for each compound. The wash-in period between administration of the test compounds and 2-min recording was 8 min. The field potentials were recorded with Multiwell-Screen software (Multi Channel Systems) and analysed with Multiwell-Analyzer software (Multi Channel Systems). The data from the electrodes showing clear beating patterns, sodium spike voltage change over 70 µV, and a detectable T-wave were used for the analyses. Data obtained from the electrodes of one well were averaged. In the analyses, each well was treated as an individual and (the ratio of) test compound-induced changes were calculated against the recorded baseline from the same well. The data was normalized only against the baseline values, not against the vehicle control. All the field potential durations (FPD) were corrected against the changes in beating frequency using the Fridericia formula cFPD=FPD/RR3 , where RR is the RR interval.
For each compound, we analysed the effects on FPD, beat rate and amplitude. We selected one MEA parameter based on their mechanism of action. FPD, that corresponds to the QT interval[59], was selected for compounds that are known to affect the QT time e.g., by targeting hERG or Ca^2+ channels. Beat rate was selected for compounds that target adrenergic receptors.
For the electrophysiology measurements, the chosen sample size was either 4 when using 24-well MEA plates with 12 electrodes per well and 8 when using 96-well MEA plates with 3 electrodes per well. The reported n stands for the number of wells (cardiac tissue models) per repetition of the study. Each test was repeated 3 times using 4–8 parallels in each concentration. Excel (Microsoft) was used for to calculate the p-values using Student’s two-tailed t-test. EC50 and IC50 values were calculated using non-linear fit four-parameters logistic equation Prism version 5.0. (GraphPad). The baseline values were used as Emin.

The conditions of series [2]: free plasma concentration from the literature; cited from earlier work.
The subject of series [3] is QT interval. Particulars: cited from earlier work.
Series [4] has as its system QT interval. Particulars: cited from earlier work. This is another data set of the same source.
In series [5] the test system is hiPSC-derived cardiomyocytes. The arrangement: method as in PMID 28456566. The following applies: cited from earlier work.
Series [6] relates to calcium channels. The arrangement: method as in PMID 17078945. The following applies: cited from earlier work.
The subject of series [7] is sodium channels. The arrangement: method as in PMID 10069689. The following applies: canine atrial myocytes; cited from earlier work.
On the set-up of series [8]: method as in PMID 6599419. The following applies: humans; cited from earlier work.

By IC50 is commonly meant the concentration at which inhibition is half-maximal.

Consider `CC(=O)Oc1ccccc1C(=O)O` [Acetyl salicylic acid], for which the “signs of cardio activity or toxicity” value in series [1] is “None”.
Take `COc1cc2nc(N(C)CCCNC(=O)C3CCCO3)nc(N)c2cc1OC` (stereo not drawn) [Alfuzosin]: in series [1] (at 300 nM, statistically significant), the “increase in FPD” value is 20%. Also, the Therapeutic concentration in series [2] was 56[21] nM. Besides, the “QT effect in patients” value in series [3] (at high doses (100 nM)) was “mild QT increase”. Further, the “concentration that significantly prolongs the QT interval in vitro” value in series [4] is 300 nM.
Regarding `COc1ccc(CCN2CCC(Nc3nc4ccccc4n3Cc3ccc(F)cc3)CC2)cc1` [Astemizole], the Therapeutic concentration in series [2] is 8[21] nM.
With `COc1cc(N)c(Cl)cc1C(=O)NC1CCN(CCCOc2ccc(F)cc2)CC1OC` (stereo not drawn) [Cisapride], the Therapeutic concentration in series [2] is 2.5[29] nM.
With `C[C@H]1O[C@@H](O[C@H]2[C@@H](O)C[C@H](O[C@H]3[C@@H](O)C[C@H](O[C@H]4CC[C@@]5(C)[C@H](CC[C@@H]6[C@@H]5C[C@@H](O)[C@]5(C)[C@@H](C7=CC(=O)OC7)CC[C@]65O)C4)O[C@@H]3C)O[C@@H]2C)C[C@H](O)[C@@H]1O` [Digoxin], in series [2], the Therapeutic concentration was 2.8[61] nM.
Take `CN(CCOc1ccc(NS(C)(=O)=O)cc1)CCc1ccc(NS(C)(=O)=O)cc1` [Dofetilide]: the Therapeutic concentration in series [2] is 2[60] nM.
Take `NCCc1ccc(O)c(O)c1` [Dopamine]: the Therapeutic concentration in series [2] is listed as 300 (20% increase) nM.
Take `COc1cccc2c1C(=O)c1c(O)c3c(c(O)c1C2=O)C[C@@](O)(C(=O)CO)C[C@@H]3O[C@H]1C[C@H](N)[C@H](O)[C@H](C)O1` [Doxorubicin]: the “changes to FPD, BPM or amplitude” value in series [1] (short-term experiments, exposures up to 2 h) is “could not detect any”. Besides, in series [5] (after two days of exposure), the “apoptosis of hiPSC-derived cardiomyocytes” value is given as “increase”. Further, the “effect on FPD or beat rate” value in series [5] (short exposures) is “not to affect”.
Regarding `CNC[C@H](O)c1ccc(O)c(O)c1` [Epinephrine], in series [2], the Therapeutic concentration was 2.64[62] nM.
Turning to `O=C(CCCN1CCC(O)(c2ccc(Cl)cc2)CC1)c1ccc(F)cc1` [Haloperidol], in series [2], the Therapeutic concentration was 45[60] nM.
On to `CCCCCCc1ccc(O)cc1O` [Hexylresorcinol], for which, in series [1], the “signs of cardio activity or toxicity” value is on record as “None”.
The same measure, in the same setting: to `CC(C)Cc1ccc(C(C)C(=O)O)cc1` (stereo not drawn) [Ibuprofen] belongs “None”.
As to `CC(C)NCC(O)c1ccc(O)c(O)c1` (stereo not drawn) [Isoprenaline], in series [2], the Therapeutic concentration was 0.84[63] nM.
As to `COC(=O)C1=C(C)NC(C)=C(C(=O)OC(C)C)C1c1cccc2nonc12` (stereo not drawn) [Isradipine], the Therapeutic concentration in series [2] is 80[61] nM.
`C[C@@H]1CC(=O)NN=C1c1ccc(NN=C(C#N)C#N)cc1` [Levosimendan]: the Therapeutic concentration in series [2] was 129[21] nM.
With `CCN(CC)CC(=O)Nc1c(C)cccc1C` [Lidocaine], the Therapeutic concentration in series [2] is 2500[29] nM.
As for `COc1c(N2C[C@@H]3CCCN[C@@H]3C2)c(F)cc2c(=O)c(C(=O)O)cn(C3CC3)c12` [Moxifloxasin], in series [2], the Therapeutic concentration is 5600[60] nM.
Consider `COC(=O)C1=C(C)NC(C)=C(C(=O)OC)C1c1ccccc1[N+](=O)[O-]` [Nifedipine], for which the Therapeutic concentration in series [2] was 190[60] nM.
Consider `N=C(N)c1ccc(OCCCCCOc2ccc(C(=N)N)cc2)cc1` [Pentamidine], for which the “effect on FPD (in words)” value in series [1] was “could not detect any significant FPD prolongation”. Moreover, the Therapeutic concentration in series [2] was 190[61] nM.
For the molecule `O=c1[nH]c2ccccc2n1C1CCN(CCCC(c2ccc(F)cc2)c2ccc(F)cc2)CC1` [Pimozide], the Therapeutic concentration in series [2] was 3.7[61] nM.
For `CC(C)NCC(O)COc1cccc2ccccc12` (stereo not drawn) [Propranolol], the Therapeutic concentration in series [2] was 1095[64] nM.
As to `C=C[C@H]1C[N@@]2CC[C@H]1C[C@@H]2[C@@H](O)c1ccnc2ccc(OC)cc12` [Quinidine], in series [2], the Therapeutic concentration was 3240[60] nM.
With `COc1ccccc1OCC(O)CN1CCN(CC(=O)Nc2c(C)cccc2C)CC1` (stereo not drawn) [Ranolazine], the Therapeutic concentration in series [2] is 6010[21] nM.
In the case of `CC(C)NCC(O)c1ccc(NS(C)(=O)=O)cc1` (stereo not drawn) [Sotalol], in series [2], the Therapeutic concentration was 13,000[60] nM.
For the molecule `CC(C)(C)c1ccc(C(O)CCCN2CCC(C(O)(c3ccccc3)c3ccccc3)CC2)cc1` (stereo not drawn) [Terfenadine], the “effect on FPD (in words)” value in series [1] is reported as “FPD shortening”. Further, the “increase in FPD before the shortening of FPD initiated” value in series [1] (non-significant) was found to be 10%. For the same molecule, the Therapeutic concentration in series [2] was 300[21] nM. Also, the values for the IC50 in series [6] and in series [7] were 185 nM and 930 nM, respectively.
Consider `CC(CC(c1ccccc1)c1ccccc1)NC(C)(C)C` (stereo not drawn) [Terodiline], for which the EC50 in series [1] (Homo sapiens, Cardiomyocyte, as rounded in the discussion, read-out: amplitude EC50 concentration) turned out to be 2600 nM. Besides, in series [1], the “effect on FPD (in words)” value is recorded as “did not detect the expected FPD prolongation”. Besides, the Therapeutic concentration in series [2] was 1800[60] nM. The toxic plasma concentration in series [8] was 2.1 µM.
`Cc1ccc(O)c([C@H](CCN(C(C)C)C(C)C)c2ccccc2)c1` [Tolterodine]: the Therapeutic concentration in series [2] is recorded as 5 nM. The “QT interval in clinical use” value in series [3] is on record as “does not prolong the QT interval”. In addition, the “in vivo concentration corresponding to the QT-prolonging concentration in vitro” value in series [4] (very high concentration in vitro) was 340 nM.

The record behind these values is paper PMC9355975, “Functional human cell-based vascularised cardiac tissue model for biomedical research and testing” (Scientific Reports, 2022).
